Laboratory results reported in patent US20260335279A1, “METHODS OF TREATING ISCHEMIA-REPERFUSION INJURIES” (University of Cincinnati, priority 2022, published 2026).

Columns and labels:
[1] = system: KLF5; assay: KLF5 suppression, mRNA (quantitative real-time PCR) in cardiac tissue, I/R mice; format: in vivo, mouse (C57BL/6)
Method: (§1) The myocardial ischemia/reperfusion surgical protocol was applied as follows. Mice were anesthetized with 2% isoflurane inhalation until anesthesia was achieved. The animals' body temperature was maintained at 37 °C throughout the surgical procedure using a heating pad. A tracheal tube was placed via tracheal intubation and the respiration rate was set at 150 strokes/min with a tidal volume of 200 μL, using Minivent ventilator for mice (Model 845, Harvard Apparatus). A 1.2 cm incision was made over the left chest. After retraction of the pectoral major and minor muscles, the fourth intercostal space was exposed. […] The mouse was then monitored during the recovery period, which was generally completed within 3 to 5 minutes. […]
(§2) Total RNA was purified from heart tissue using the TRIzol reagent according to the instructions of the manufacturer (ThermoFischer Scientific, Cat. No.: 15596018). cDNA synthesis was performed using the Applied Biosystems High Capacity cDNA Reverse Transcription Kit (ThermoFischer Scientific, Cat. No.: 4368814) from 500 ng RNA, which had been treated with DNAase I (ThermoFischer Scientific, Cat. No.: 18068015). Quantitative real-time PCR was performed with the SYBR Select Master Mix (ThermoFischer Scientific, Cat. No.: 4472903) using the manufacturer's recommendations. […]

[2] = system: KLF5; assay: KLF5 protein expression (Western blot) in cardiac tissue, I/R mice; format: in vivo, mouse (C57BL/6); conditions: 30 minutes of ischemia; ML264 25 mg/kg/12 h intraperitoneal
Method: (§3) The myocardial ischemia/reperfusion surgical protocol was applied as follows. Mice were anesthetized with 2% isoflurane inhalation until anesthesia was achieved. The animals' body temperature was maintained at 37 °C throughout the surgical procedure using a heating pad. A tracheal tube was placed via tracheal intubation and the respiration rate was set at 150 strokes/min with a tidal volume of 200 μL, using Minivent ventilator for mice (Model 845, Harvard Apparatus). A 1.2 cm incision was made over the left chest. After retraction of the pectoral major and minor muscles, the fourth intercostal space was exposed. […] The left anterior descending coronary artery (LAD) was then located, sutured, and ligated at a site 3-4 mm distal to the origin of the artery under the left atrium using a 6-0 silk suture. The heart was allowed to stabilize for 15 min and right after, ischemia was induced by tightening the suture against a small piece of polyethylene tube. […] The mouse was then monitored during the recovery period, which was generally completed within 3 to 5 minutes. […]
Isolated myocardial tissue/isolated primary murine cardiomyocytes were homogenized in radioimmunoprecipitation assay buffer (RIPA buffer) containing protease and phosphatase inhibitors (Thermo Fischer Scientific, Cat. No.: A32959). […] Relative densitometry was determined, and the β-actin protein was used as a loading control. […]

[3] = system: cardiac fibrosis in mice; assay: Masson's Trichrome staining, cardiac fibrosis in chronic model of I/R injury; format: in vivo, mouse (C57BL/6); conditions: 30 min ischemia, 4 weeks reperfusion; two doses of ML264 at early reperfusion
Method: as §3
Tissue sectioning and Masson's Trichrome staining were performed. […] Fibrotic myocardial tissue size was measured as % area with respect to the total slice area in mouse hearts imaged at 0.8×. […]

[4] = system: Col3a1; assay: Col3a1 mRNA in chronic model of I/R injury (real-time PCR); format: in vivo, mouse (C57BL/6); conditions: 4 weeks post-I/R; vs IR group treated with vehicle
Method: as §1, §2

[5] = system: BCL-XL; assay: BCL-XL anti-apoptotic protein in myocardium after I/R (Western blot); format: in vivo, mouse (C57BL/6); conditions: ML264-treated group; 30 min ischemia, 2 h reperfusion
Method: as §3, with “suture.” for “suture. The heart was allowed to stabilize for 15 min and right after, ischemia was induced by tightening the suture against a small piece of polyethylene tube.”
(§4) Isolated myocardial tissue/isolated primary murine cardiomyocytes were homogenized in radioimmunoprecipitation assay buffer (RIPA buffer) containing protease and phosphatase inhibitors (Thermo Fischer Scientific, Cat. No.: A32959). […] Relative densitometry was determined, and the β-actin protein was used as a loading control.
In order to unravel the mechanisms of KLF5-mediated cardiotoxicity, oxidative stress levels were evaluated at early reperfusion. […]

[6] = system: IL-6; assay: IL-6 mRNA in ischemic myocardium; format: in vivo, mouse (C57BL/6); conditions: evaluated at 2 h and 24 h of reperfusion, vs vehicle
Method: as §1, §2

[7] = system: Glut1; assay: GLUT1 protein levels after I/R; format: in vivo, mouse; conditions: ML-264 treatment; did not reach statistical significance
Method: as §1, §4
Finally, to test the potential involvement of GLUT1 and GLUT4 in myocardial ischemia-reperfusion injury, two compounds, namely KL-11743, a non-specific GLUT inhibitor, as well as STF-31, which is a GLUT1-specific inhibitor, were evaluated.

For CN(C(=O)CNC(=O)/C=C/c1cccc(Cl)c1)C1CCS(=O)(=O)CC1 [ML264], the “KLF5 mRNA levels (4 weeks)” value ([1]; 4 weeks post-ischemia-reperfusion, among the four groups) was “unchanged”, the “KLF5 mRNA expression level in cardiac tissue” value ([1]; 30 minutes of ischemia, ML264 25 mg/kg/12 h intraperitoneal) was “suppression was confirmed” and the “KLF5 protein expression in cardiac tissue” value [2] was “suppression was confirmed”. For the same compound, the “fibrotic scar tissue formation” value [3] was “significant reduction”, the “mRNA levels of Col3a1” value [4] was “decreased” and the BCL-XL anti-apoptotic proteins [5] was “upregulation”. The “IL-6 mRNA levels” value [6] was “Significant suppression” and the GLUT1 protein levels [7] was “trend towards suppression”.
